Reference: ChEMBL document CHEMBL3734671, “Design and synthesis of an in vivo-efficacious PIM3 kinase inhibitor as a candidate anti-pancreatic cancer agent” (Bioorg Med Chem Lett, 2015)

Columns and labels:
[1] = target: Dual specificity mitogen-activated protein kinase kinase 1 (Homo sapiens) (UniProt Q02750); assay: Inhibition of MAP2K1 (unknown origin) at 200 nM by ELISA
[2] = target: Mitogen-activated protein kinase kinase kinase 9 (Homo sapiens) (UniProt P80192); assay: Inhibition of MLK1 (unknown origin) at 200 nM by ELISA
[3] = target: Receptor-type tyrosine-protein kinase FLT3 (Homo sapiens) (UniProt P36888); assay: Inhibition of FLT3 (unknown origin) at 200 nM by electrophoretic mobility shift assay
[4] = Growth inhibition of human PANC1 cells after 72 hrs by CCK-8 assay; assay type: functional, cell-based; conditions: PANC-1, 72 h
CYP2C9 = CYP2C9 (Homo sapiens, UniProt P11712); assay: Inhibition of CYP2C9 (unknown origin) at 10 uM; assay type: ADME
CYP2C19 = CYP2C19 (Homo sapiens, UniProt P33261); assay: Inhibition of CYP2C19 (unknown origin) at 10 uM; assay type: ADME
CYP2C19, sequence (P33261 whole entry): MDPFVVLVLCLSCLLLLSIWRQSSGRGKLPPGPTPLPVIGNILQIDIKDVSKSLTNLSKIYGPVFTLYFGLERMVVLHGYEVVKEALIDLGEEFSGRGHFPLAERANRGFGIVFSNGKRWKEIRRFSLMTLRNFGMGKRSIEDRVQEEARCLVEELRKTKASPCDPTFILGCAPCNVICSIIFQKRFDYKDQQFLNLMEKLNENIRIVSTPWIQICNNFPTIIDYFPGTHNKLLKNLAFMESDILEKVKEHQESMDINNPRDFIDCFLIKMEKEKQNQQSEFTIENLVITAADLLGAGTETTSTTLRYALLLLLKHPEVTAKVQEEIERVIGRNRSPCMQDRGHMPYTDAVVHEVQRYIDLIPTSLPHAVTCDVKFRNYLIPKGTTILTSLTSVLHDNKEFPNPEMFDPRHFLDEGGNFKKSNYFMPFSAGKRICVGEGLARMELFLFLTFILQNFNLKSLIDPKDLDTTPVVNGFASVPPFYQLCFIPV

CYP3A4 = CYP3A4 (Homo sapiens, UniProt P08684); assay: Inhibition of CYP3A4 (unknown origin) at 10 uM; assay type: ADME
[5] = target: Ephrin type-A receptor 2 (Homo sapiens) (UniProt P29317); assay: Inhibition of EPHA2 (unknown origin) at 200 nM by electrophoretic mobility shift assay
Ephrin type-A receptor 2 (Homo sapiens), sequence (P29317 whole entry): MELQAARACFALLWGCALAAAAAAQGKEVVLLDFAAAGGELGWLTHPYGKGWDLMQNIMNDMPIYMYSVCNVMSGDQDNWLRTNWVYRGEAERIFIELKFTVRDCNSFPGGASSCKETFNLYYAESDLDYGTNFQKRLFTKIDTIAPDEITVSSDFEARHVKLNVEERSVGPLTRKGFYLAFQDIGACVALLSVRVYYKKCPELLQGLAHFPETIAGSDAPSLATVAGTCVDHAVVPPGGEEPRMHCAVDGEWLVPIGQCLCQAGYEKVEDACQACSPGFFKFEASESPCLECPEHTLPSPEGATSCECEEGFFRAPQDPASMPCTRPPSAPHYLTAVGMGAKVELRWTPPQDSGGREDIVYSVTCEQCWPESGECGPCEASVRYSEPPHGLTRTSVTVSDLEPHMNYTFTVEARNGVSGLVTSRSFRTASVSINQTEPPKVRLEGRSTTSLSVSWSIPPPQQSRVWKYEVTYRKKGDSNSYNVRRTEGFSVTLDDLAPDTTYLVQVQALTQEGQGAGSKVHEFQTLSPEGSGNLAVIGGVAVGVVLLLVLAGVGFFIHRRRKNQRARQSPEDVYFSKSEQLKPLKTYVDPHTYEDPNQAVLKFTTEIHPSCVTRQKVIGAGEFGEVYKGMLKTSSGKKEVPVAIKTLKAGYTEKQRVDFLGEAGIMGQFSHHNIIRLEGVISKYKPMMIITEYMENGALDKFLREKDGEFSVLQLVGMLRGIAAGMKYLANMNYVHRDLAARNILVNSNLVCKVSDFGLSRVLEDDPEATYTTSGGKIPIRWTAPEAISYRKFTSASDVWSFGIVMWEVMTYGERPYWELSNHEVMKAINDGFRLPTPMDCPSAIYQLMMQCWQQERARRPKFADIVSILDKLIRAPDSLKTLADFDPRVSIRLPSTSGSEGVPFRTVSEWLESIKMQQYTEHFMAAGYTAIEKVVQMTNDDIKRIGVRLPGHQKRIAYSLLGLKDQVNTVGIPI

[6] = target: Ephrin type-B receptor 4 (Homo sapiens) (UniProt P54760); assay: Inhibition of EPHB4 (unknown origin) at 200 nM by electrophoretic mobility shift assay
[7] = target: Tyrosine-protein kinase ITK/TSK (Homo sapiens) (UniProt Q08881); assay: Inhibition of ITK (unknown origin) at 200 nM by electrophoretic mobility shift assay
[8] = target: Tyrosine-protein kinase JAK3 (Homo sapiens) (UniProt P52333); assay: Inhibition of JAK3 (unknown origin) at 200 nM by electrophoretic mobility shift assay
[9] = target: Vascular endothelial growth factor receptor 2 (Homo sapiens) (UniProt P35968); assay: Inhibition of KDR (unknown origin) at 200 nM by electrophoretic mobility shift assay
[10] = target: Tyrosine-protein kinase Lck (Homo sapiens) (UniProt P06239); assay: Inhibition of LCK (unknown origin) at 200 nM by electrophoretic mobility shift assay
[11] = target: Protein-tyrosine kinase 2-beta (Homo sapiens) (UniProt Q14289); assay: Inhibition of PYK2 (unknown origin) at 200 nM by electrophoretic mobility shift assay
[12] = target: Proto-oncogene tyrosine-protein kinase Src (Homo sapiens) (UniProt P12931); assay: Inhibition of SRC (unknown origin) at 200 nM by electrophoretic mobility shift assay
[13] = target: Tyrosine-protein kinase SYK (Homo sapiens) (UniProt P43405); assay: Inhibition of SYK (unknown origin) at 200 nM by electrophoretic mobility shift assay
[14] = target: Tyrosine-protein kinase receptor TYRO3 (Homo sapiens) (UniProt Q06418); assay: Inhibition of TYRO3 (unknown origin) at 200 nM by electrophoretic mobility shift assay
Tyrosine-protein kinase receptor TYRO3 (Homo sapiens), sequence (Q06418 whole entry): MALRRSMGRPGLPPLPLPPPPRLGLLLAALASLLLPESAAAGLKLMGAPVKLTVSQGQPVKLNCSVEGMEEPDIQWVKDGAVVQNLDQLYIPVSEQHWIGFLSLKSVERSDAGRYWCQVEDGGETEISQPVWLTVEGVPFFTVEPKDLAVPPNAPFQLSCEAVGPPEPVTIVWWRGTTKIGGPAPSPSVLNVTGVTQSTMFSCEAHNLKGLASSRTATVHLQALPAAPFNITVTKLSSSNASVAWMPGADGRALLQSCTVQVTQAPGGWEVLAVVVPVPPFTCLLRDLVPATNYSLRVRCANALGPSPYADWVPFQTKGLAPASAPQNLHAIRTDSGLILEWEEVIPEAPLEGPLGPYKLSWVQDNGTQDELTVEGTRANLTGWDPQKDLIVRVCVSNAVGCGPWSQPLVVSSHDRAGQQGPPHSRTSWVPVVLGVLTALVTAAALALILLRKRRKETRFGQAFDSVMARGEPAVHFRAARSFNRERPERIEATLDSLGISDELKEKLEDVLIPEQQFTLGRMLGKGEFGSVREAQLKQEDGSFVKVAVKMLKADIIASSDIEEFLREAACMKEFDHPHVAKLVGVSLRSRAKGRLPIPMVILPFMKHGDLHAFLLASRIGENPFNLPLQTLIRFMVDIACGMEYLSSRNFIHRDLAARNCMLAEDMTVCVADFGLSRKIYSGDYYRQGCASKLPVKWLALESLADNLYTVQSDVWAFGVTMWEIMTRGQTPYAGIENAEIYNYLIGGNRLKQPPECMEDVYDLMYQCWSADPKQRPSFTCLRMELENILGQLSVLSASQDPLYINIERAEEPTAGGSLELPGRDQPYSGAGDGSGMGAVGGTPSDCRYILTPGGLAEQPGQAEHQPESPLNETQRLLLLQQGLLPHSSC

[15] = target: RAC-alpha serine/threonine-protein kinase (Homo sapiens) (UniProt P31749); assay: Inhibition of AKT1 (unknown origin) at 200 nM by electrophoretic mobility shift assay
[16] = target: AMP-activated protein kinase, AMPK (Homo sapiens) (UniProt P54646+O43741+P54619+Q9UGJ0+Q9Y478+Q13131+Q9UGI9); assay: Inhibition of AMPKalpha1/beta1/gama1 (unknown origin) at 200 nM by electrophoretic mobility shift assay; assay type: protein-complex assay
[17] = target: Calcium/calmodulin-dependent protein kinase type IV (Homo sapiens) (UniProt Q16566); assay: Inhibition of CaMK4 (unknown origin) at 200 nM by electrophoretic mobility shift assay
Calcium/calmodulin-dependent protein kinase type IV (Homo sapiens), sequence (Q16566 whole entry): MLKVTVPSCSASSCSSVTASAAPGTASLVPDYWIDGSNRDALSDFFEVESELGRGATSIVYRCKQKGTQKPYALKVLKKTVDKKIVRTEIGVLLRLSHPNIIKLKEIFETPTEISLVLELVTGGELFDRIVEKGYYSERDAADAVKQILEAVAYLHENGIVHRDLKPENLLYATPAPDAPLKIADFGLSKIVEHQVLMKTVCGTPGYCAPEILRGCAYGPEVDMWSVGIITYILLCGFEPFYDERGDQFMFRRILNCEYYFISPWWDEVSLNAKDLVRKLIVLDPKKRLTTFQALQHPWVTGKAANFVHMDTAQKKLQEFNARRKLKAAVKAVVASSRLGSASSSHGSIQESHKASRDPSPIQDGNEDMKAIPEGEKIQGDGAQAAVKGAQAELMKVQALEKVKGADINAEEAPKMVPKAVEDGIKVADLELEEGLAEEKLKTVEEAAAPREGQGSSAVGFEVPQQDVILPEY

[18] = target: CDK2/Cyclin A2 (Homo sapiens) (UniProt P24941+P20248); assay: Inhibition of CDK2/CycA2 (unknown origin) at 200 nM by electrophoretic mobility shift assay; assay type: protein-complex assay
[19] = target: Casein kinase I isoform epsilon (Homo sapiens) (UniProt P49674); assay: Inhibition of CK1 epsilon (unknown origin) at 200 nM by electrophoretic mobility shift assay
[20] = target: Mitogen-activated protein kinase 1 (Homo sapiens) (UniProt P28482); assay: Inhibition of Erk2 (unknown origin) at 200 nM by electrophoretic mobility shift assay
[21] = target: T1, Glycogen synthase kinase-3 beta (Homo sapiens, UniProt P49841); assay: Inhibition of GSK3beta (unknown origin) at 200 nM by electrophoretic mobility shift assay
Target sequence in this assay (P49841 whole entry, looked up): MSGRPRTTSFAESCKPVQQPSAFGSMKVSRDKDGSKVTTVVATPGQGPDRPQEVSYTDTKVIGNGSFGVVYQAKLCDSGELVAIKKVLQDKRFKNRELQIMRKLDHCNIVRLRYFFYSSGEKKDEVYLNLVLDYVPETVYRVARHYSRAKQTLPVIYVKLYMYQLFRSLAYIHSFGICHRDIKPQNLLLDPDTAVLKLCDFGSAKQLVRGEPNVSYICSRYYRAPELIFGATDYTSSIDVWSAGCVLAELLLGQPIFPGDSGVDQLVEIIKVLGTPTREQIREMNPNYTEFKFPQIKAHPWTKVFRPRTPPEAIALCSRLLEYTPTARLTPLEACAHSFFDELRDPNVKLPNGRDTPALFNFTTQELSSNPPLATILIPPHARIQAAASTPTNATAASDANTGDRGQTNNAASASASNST

[22] = target: Interleukin-1 receptor-associated kinase 4 (Homo sapiens) (UniProt Q9NWZ3); assay: Inhibition of IRAK4 (unknown origin) at 200 nM by electrophoretic mobility shift assay
Interleukin-1 receptor-associated kinase 4 (Homo sapiens), sequence (Q9NWZ3 whole entry): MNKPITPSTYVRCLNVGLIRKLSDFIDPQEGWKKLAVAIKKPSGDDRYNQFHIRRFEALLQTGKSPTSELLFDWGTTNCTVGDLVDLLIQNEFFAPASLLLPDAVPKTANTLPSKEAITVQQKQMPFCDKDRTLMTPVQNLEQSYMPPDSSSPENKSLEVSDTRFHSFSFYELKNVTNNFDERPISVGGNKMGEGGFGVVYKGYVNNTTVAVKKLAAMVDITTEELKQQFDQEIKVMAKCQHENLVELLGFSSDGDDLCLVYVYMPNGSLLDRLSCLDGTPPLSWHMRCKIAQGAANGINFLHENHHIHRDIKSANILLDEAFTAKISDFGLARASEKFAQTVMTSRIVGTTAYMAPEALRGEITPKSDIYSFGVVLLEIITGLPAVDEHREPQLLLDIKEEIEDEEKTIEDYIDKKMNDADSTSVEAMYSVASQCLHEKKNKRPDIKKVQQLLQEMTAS

[23] = target: MAP kinase-activated protein kinase 2 (Homo sapiens) (UniProt P49137); assay: Inhibition of MAPKAPK2 (unknown origin) at 200 nM by electrophoretic mobility shift assay
[24] = target: cAMP-dependent protein kinase catalytic subunit alpha (Homo sapiens) (UniProt P17612); assay: Inhibition of PKACalpha (unknown origin) at 200 nM by electrophoretic mobility shift assay
[25] = target: Protein kinase C alpha type (Homo sapiens) (UniProt P17252); assay: Inhibition of PKCalpha (unknown origin) at 200 nM by electrophoretic mobility shift assay
[26] = target: T1, Glycogen synthase kinase-3 beta; assay: Inhibition of GSK3beta (unknown origin) by electrophoretic mobility shift assay
Target sequence in this assay (P49841 whole entry): as the sequence (P49841 whole entry, looked up) above

[27] = target: Death-associated protein kinase 1 (Homo sapiens, UniProt P53355); assay: Inhibition of DAPK1 (unknown origin) by electrophoretic mobility shift assay
[28] = target: Serine/threonine-protein kinase pim-1 (Homo sapiens, UniProt P11309); assay: Inhibition of PIM1 (unknown origin) by electrophoretic mobility shift assay
[29] = Growth inhibition of human MIAPaCa2 cells after 72 hrs by CCK-8 assay; assay type: functional, cell-based; conditions: MIA PaCa-2, 72 h
[30] = Growth inhibition of human L3.6PL cells after 72 hrs by CCK-8 assay; assay type: functional
[31] = Growth inhibition of human PCI35 cells after 72 hrs by CCK-8 assay; assay type: functional, cell-based; conditions: PCI35, 72 h
[32] = Growth inhibition of human PCI66 cells after 72 hrs by CCK-8 assay; assay type: functional, cell-based; conditions: PCI66, 72 h
[33] = Antitumor activity against human PCI66 cells xenografted in BALB/c nu/nu mouse assessed as reduction in tumor volume at 30 mg/kg, ip qd dosed for 5 days followed by 2 days cessation measured 33 days after tumor inoculation relative to control; assay type: functional
Mus musculus = assay: Toxicity in BALB/c nu/nu mouse xenografted with human PCI66 cells assessed as affect on body weight at 30 mg/kg, ip qd dosed for 5 days followed by 2 days cessation measured 33 days after tumor inoculation; assay type: organism-based; conditions: in vivo, 792 h

Dual specificity mitogen-activated protein kinase kinase 1 (Homo sapiens), sequence (Q02750 whole entry): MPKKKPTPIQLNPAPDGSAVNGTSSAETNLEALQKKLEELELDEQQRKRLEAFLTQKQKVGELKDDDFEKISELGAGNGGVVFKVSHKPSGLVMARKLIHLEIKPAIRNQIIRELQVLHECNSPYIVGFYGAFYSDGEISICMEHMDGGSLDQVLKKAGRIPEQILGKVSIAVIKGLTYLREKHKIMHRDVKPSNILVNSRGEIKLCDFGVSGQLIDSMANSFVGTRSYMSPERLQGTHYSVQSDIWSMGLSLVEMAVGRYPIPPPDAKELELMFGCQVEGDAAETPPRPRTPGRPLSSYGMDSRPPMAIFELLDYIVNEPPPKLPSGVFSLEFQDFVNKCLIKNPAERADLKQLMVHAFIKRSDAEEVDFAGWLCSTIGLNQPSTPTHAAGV

Row | inhibition [1] [%] | inhibition [2] [%] | inhibition [3] [%] | inhibition at 10 µM (CYP2C9) [%] | inhibition at 10 µM (CYP2C19) [%] | inhibition at 10 µM (CYP3A4) [%] | inhibition [5] [%] | inhibition [6] [%] | inhibition [7] [%] | inhibition [8] [%] | inhibition [9] [%] | inhibition [10] [%] | inhibition [11] [%] | inhibition [12] [%] | inhibition [13] [%] | inhibition [14] [%] | inhibition [15] [%] | inhibition [16] [%] | inhibition [17] [%] | Compound | IC50 [4] [µM] | further results
1 | -7.7 | -3.4 | 55.5 | < 1 | < 1 | 39 | -2.2 | -3.1 | 3.5 | 1.5 | -5 | -5.2 | -0.4 | -0.9 | -7.5 | -2.7 | -0.2 | 1.3 | -4.6 | COc1ccc2c(c1CN1CCNCC1)O/C(=C\c1n[nH]c3ncccc13)C2=O | 5.6 | inhibition [18]: 28.2%; inhibition [19]: 3.1%; inhibition [20]: 4.9%; inhibition [21]: 76.5%; inhibition [22]: -3.8%; inhibition [23]: -1.2%; inhibition [24]: 4%; inhibition [25]: 82.5%
2 | -0.4 | -1.8 | 68 | < 1 | 16 | < 1 | -0.3 | 9.4 | 2 | 4.4 | 2 | 0.1 | 11.2 | 0.7 | 5.3 | 3.5 | 1.7 | 8.6 | -1.5 | COc1ccc2c(c1C(C)N1CCNCC1)O/C(=C\c1n[nH]c3ncccc13)C2=O (centres undefined) | 4 | IC50 [26]: 0.0061 µM; IC50 [27]: 0.012 µM; IC50 [28]: 0.0019 µM; IC50 [29]: 3.5 µM; IC50 [30]: 6.3 µM; IC50 [31]: 5.1 µM; IC50 [32]: 3.8 µM; inhibition in vivo at 30 mg/kg [33]: 52.5%; Activity (Mus musculus): Non-toxic; inhibition [18]: 13.7%; inhibition [19]: -0.5%; inhibition [20]: 0.2%; inhibition [21]: 95%; inhibition [22]: -0.6%; inhibition [24]: 18.4%; inhibition [25]: 83.6%
